Measured values reported in patent US7118895B2, “Process for producing aglycon by using diglycosidase and flavor-improved food containing the aglycon and converting agent to be used in the process” (Amano Enzyme Inc., priority 2000, dated 2006).

What was measured:
[1] = test system: Diglycosidase derived from P. multicolor; assay: Reactivity toward various isoflavone glycosides (HPLC); type: biochemical, Penicillium multicolor; design: glucoside / aglycon: unit not given here; conditions: 55 °C, pH 4.0
Method: (§1) Diglycosidase was diluted with an acetate buffer of pH 4.0 to prepare a 0.75 AU/mL enzyme solution. As references, a similar operation was conducted using β-glucosidase (manufactured by Fluka) derived from Aspergillus niger, β-glucosidase (manufactured by Sigma) derived from almond, β-xylosidase derived from pectinase G (manufactured by Amano Enzyme Inc.). Each of purified products of isoflavone glycosides (glycitin, acetylglycitin, malonylglycitin, daidzin, acetyldaidzin, malonyldaidzin, genistin, acetylgenistin, malonylgenistin, all manufactured by Nacalai Tesque, Inc.) was dissolved in methanol to prepare each 2 mM substrate solution. The reaction was carried out by mixing 10 μL of a substrate solution, 200 μL of 20 mM acetate buffer (pH 4.0), and 40 μL of each purified enzyme solution at a total liquid volume of 250 μL. The reaction was carried out at 55° C. and isolation of an aglycon isoflavone from an isoflavone glycoside in the reaction mixture was detected by HLPC at 0, 1, 3, and 6 hours of the reaction.
(§2) To the reaction mixture was added 700 μL of ethanol, followed by stirring and ultrasonication. After centrifugation at 15,000 rpm and 4° C. for 10 minutes, the supernatant was filtered through a filter and then the filtrate was applied to HPLC.
(§3) The isoflavone glycoside and aglycon isoflavone contained in the filtrate was separated and detected by a high performance liquid chromatography (HPLC, Shimadzu CLASS LC-10 system) using TOSOH TSK gel ODS-80TM column (manufactured by Tosoh Corporation). […] The absorbance at 260 nm was detected by a UV detector (Shimadzu, SPD-10AV). Using purified products (manufactured by Nacalai Tesque, Inc.) of the above isoflavone glycosides and aglycon isoflavones, the isoflavone glycoside and aglycon isoflavone were quantitatively determined according to a calibration curve method. By the way, unless otherwise stated, the measuring conditions of HPLC herein mean those described in the example.

[2] = test system: β-Glucosidase derived from A. niger; assay: as above; type: biochemical, Aspergillus niger; design: glucoside / aglycon: unit not given here; conditions: 55 °C, pH 4.0
Method: as §1, §2, §3

[3] = test system: Crude diglycosidase; assay: Examination of substrate concentration in the conversion into isoflavone aglycons by diglycosidase using soybean materials; type: biochemical, Penicillium multicolor IAM7153;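 also: percent of the isoflavone family total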
Summary of the method: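 Soybean materials (roasted soy flour, soymilk, defatted soybean, concentrated soy protein) at 2–30% (w/v) in 20 mM acetate pH 4.0 were reacted with crude diglycosidase at 55° C with shaking; enzyme solution added was 1.88 AU/mL. Samples taken at 0, 1, 3 and 6 h were ethanol-extracted and analyzed by HPLC.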

COc1cc2c(=O)c(-c3ccc(O)cc3)coc2cc1O[C@@H]1O[C@H](COC(C)=O)[C@@H](O)[C@H](O)[C@H]1O [acetylglycitin, 6″-O-acetylglycitin]
aglycon ([1]; Reaction time 0 h): 0
glucoside ([1]; Reaction time 0 h): 100
aglycon ([1]; Reaction time 1 h): 98
glucoside ([1]; Reaction time 1 h): 2
aglycon ([1]; Reaction time 3 h): 97.9
glucoside ([1]; Reaction time 3 h): 2.1
aglycon ([1]; Reaction time 6 h): 97.5
glucoside ([1]; Reaction time 6 h): 2.5
aglycon ([2]; Reaction time 0 h): 0
glucoside ([2]; Reaction time 0 h): 100
aglycon ([2]; Reaction time 1 h): 0
glucoside ([2]; Reaction time 1 h): 100
aglycon ([2]; Reaction time 3 h): 1
glucoside ([2]; Reaction time 3 h): 99
aglycon ([2]; Reaction time 6 h): 1.9
glucoside ([2]; Reaction time 6 h): 98.1
Decomposition efficiency: ratio of each glycoside/aglycon within its isoflavone family ([3]; concentrated soybean protein, substrate concentration 2%, heat treatment of enzyme no, reaction time 0 h): 35.8%
Decomposition efficiency: ratio of each glycoside/aglycon within its isoflavone family ([3]; concentrated soybean protein, substrate concentration 2%, heat treatment of enzyme no, reaction time 1 h): 14.3%
Decomposition efficiency: ratio of each glycoside/aglycon within its isoflavone family ([3]; concentrated soybean protein, substrate concentration 2%, heat treatment of enzyme no, reaction time 3 h): 5.3%
Decomposition efficiency: ratio of each glycoside/aglycon within its isoflavone family ([3]; concentrated soybean protein, substrate concentration 2%, heat treatment of enzyme no, reaction time 6 h): 0.0%
Decomposition efficiency: ratio of each glycoside/aglycon within its isoflavone family ([3]; concentrated soybean protein, substrate concentration 2%, heat treatment of enzyme yes, reaction time 6 h): 35.0%
Decomposition efficiency: ratio of each glycoside/aglycon within its isoflavone family ([3]; concentrated soybean protein, substrate concentration 5%, heat treatment of enzyme no, reaction time 0 h): 35.6%
Decomposition efficiency: ratio of each glycoside/aglycon within its isoflavone family ([3]; concentrated soybean protein, substrate concentration 5%, heat treatment of enzyme no, reaction time 1 h): 27.1%
Decomposition efficiency: ratio of each glycoside/aglycon within its isoflavone family ([3]; concentrated soybean protein, substrate concentration 5%, heat treatment of enzyme no, reaction time 3 h): 17.8%
Decomposition efficiency: ratio of each glycoside/aglycon within its isoflavone family ([3]; concentrated soybean protein, substrate concentration 5%, heat treatment of enzyme no, reaction time 6 h): 12.3%
Decomposition efficiency: ratio of each glycoside/aglycon within its isoflavone family ([3]; concentrated soybean protein, substrate concentration 5%, heat treatment of enzyme yes, reaction time 6 h): 34.4%
Decomposition efficiency: ratio of each glycoside/aglycon within its isoflavone family ([3]; concentrated soybean protein, substrate concentration 10%, heat treatment of enzyme no, reaction time 0 h): 35.7%
Decomposition efficiency: ratio of each glycoside/aglycon within its isoflavone family ([3]; concentrated soybean protein, substrate concentration 10%, heat treatment of enzyme no, reaction time 1 h): 31.2%
Decomposition efficiency: ratio of each glycoside/aglycon within its isoflavone family ([3]; concentrated soybean protein, substrate concentration 10%, heat treatment of enzyme no, reaction time 3 h): 26.2%
Decomposition efficiency: ratio of each glycoside/aglycon within its isoflavone family ([3]; concentrated soybean protein, substrate concentration 10%, heat treatment of enzyme no, reaction time 6 h): 23.9%
Decomposition efficiency: ratio of each glycoside/aglycon within its isoflavone family ([3]; concentrated soybean protein, substrate concentration 10%, heat treatment of enzyme yes, reaction time 6 h): 35.2%
Decomposition efficiency: ratio of each glycoside/aglycon within its isoflavone family ([3]; concentrated soybean protein, substrate concentration 20%, heat treatment of enzyme no, reaction time 0 h): 35.9%
Decomposition efficiency: ratio of each glycoside/aglycon within its isoflavone family ([3]; concentrated soybean protein, substrate concentration 20%, heat treatment of enzyme no, reaction time 1 h): 35.4%
Decomposition efficiency: ratio of each glycoside/aglycon within its isoflavone family ([3]; concentrated soybean protein, substrate concentration 20%, heat treatment of enzyme no, reaction time 3 h): 33.6%
Decomposition efficiency: ratio of each glycoside/aglycon within its isoflavone family ([3]; concentrated soybean protein, substrate concentration 20%, heat treatment of enzyme no, reaction time 6 h): 30.5%
Decomposition efficiency: ratio of each glycoside/aglycon within its isoflavone family ([3]; concentrated soybean protein, substrate concentration 20%, heat treatment of enzyme yes, reaction time 6 h): 35.8%
Decomposition efficiency: ratio of each glycoside/aglycon within its isoflavone family ([3]; concentrated soybean protein, substrate concentration 30%, heat treatment of enzyme no, reaction time 0 h): 33.9%
Decomposition efficiency: ratio of each glycoside/aglycon within its isoflavone family ([3]; concentrated soybean protein, substrate concentration 30%, heat treatment of enzyme no, reaction time 1 h): 35.9%
Decomposition efficiency: ratio of each glycoside/aglycon within its isoflavone family ([3]; concentrated soybean protein, substrate concentration 30%, heat treatment of enzyme no, reaction time 3 h): 30.7%
Decomposition efficiency: ratio of each glycoside/aglycon within its isoflavone family ([3]; concentrated soybean protein, substrate concentration 30%, heat treatment of enzyme no, reaction time 6 h): 28.3%
Decomposition efficiency: ratio of each glycoside/aglycon within its isoflavone family ([3]; concentrated soybean protein, substrate concentration 30%, heat treatment of enzyme yes, reaction time 6 h): 33.4%
Decomposition efficiency: ratio of each glycoside/aglycon within its isoflavone family ([3]; defatted soybean, substrate concentration 2%, heat treatment of enzyme no, reaction time 0 h): not detected
Decomposition efficiency: ratio of each glycoside/aglycon within its isoflavone family ([3]; defatted soybean, substrate concentration 2%, heat treatment of enzyme no, reaction time 1 h): not detected
Decomposition efficiency: ratio of each glycoside/aglycon within its isoflavone family ([3]; defatted soybean, substrate concentration 2%, heat treatment of enzyme no, reaction time 3 h): not detected
Decomposition efficiency: ratio of each glycoside/aglycon within its isoflavone family ([3]; defatted soybean, substrate concentration 2%, heat treatment of enzyme no, reaction time 6 h): not detected
Decomposition efficiency: ratio of each glycoside/aglycon within its isoflavone family ([3]; defatted soybean, substrate concentration 2%, heat treatment of enzyme yes, reaction time 6 h): not detected
Decomposition efficiency: ratio of each glycoside/aglycon within its isoflavone family ([3]; defatted soybean, substrate concentration 5%, heat treatment of enzyme no, reaction time 0 h): not detected
Decomposition efficiency: ratio of each glycoside/aglycon within its isoflavone family ([3]; defatted soybean, substrate concentration 5%, heat treatment of enzyme no, reaction time 1 h): not detected
Decomposition efficiency: ratio of each glycoside/aglycon within its isoflavone family ([3]; defatted soybean, substrate concentration 5%, heat treatment of enzyme no, reaction time 3 h): not detected
Decomposition efficiency: ratio of each glycoside/aglycon within its isoflavone family ([3]; defatted soybean, substrate concentration 5%, heat treatment of enzyme no, reaction time 6 h): not detected
Decomposition efficiency: ratio of each glycoside/aglycon within its isoflavone family ([3]; defatted soybean, substrate concentration 5%, heat treatment of enzyme yes, reaction time 6 h): not detected
Decomposition efficiency: ratio of each glycoside/aglycon within its isoflavone family ([3]; defatted soybean, substrate concentration 10%, heat treatment of enzyme no, reaction time 0 h): not detected
Decomposition efficiency: ratio of each glycoside/aglycon within its isoflavone family ([3]; defatted soybean, substrate concentration 10%, heat treatment of enzyme no, reaction time 1 h): not detected
Decomposition efficiency: ratio of each glycoside/aglycon within its isoflavone family ([3]; defatted soybean, substrate concentration 10%, heat treatment of enzyme no, reaction time 3 h): not detected
Decomposition efficiency: ratio of each glycoside/aglycon within its isoflavone family ([3]; defatted soybean, substrate concentration 10%, heat treatment of enzyme no, reaction time 6 h): not detected
Decomposition efficiency: ratio of each glycoside/aglycon within its isoflavone family ([3]; defatted soybean, substrate concentration 10%, heat treatment of enzyme yes, reaction time 6 h): not detected
Decomposition efficiency: ratio of each glycoside/aglycon within its isoflavone family ([3]; roasted soy flour, substrate concentration 2%, heat treatment of enzyme no, reaction time 0 h): 33.6%
Decomposition efficiency: ratio of each glycoside/aglycon within its isoflavone family ([3]; roasted soy flour, substrate concentration 2%, heat treatment of enzyme no, reaction time 1 h): not detected
Decomposition efficiency: ratio of each glycoside/aglycon within its isoflavone family ([3]; roasted soy flour, substrate concentration 2%, heat treatment of enzyme no, reaction time 3 h): not detected
Decomposition efficiency: ratio of each glycoside/aglycon within its isoflavone family ([3]; roasted soy flour, substrate concentration 2%, heat treatment of enzyme no, reaction time 6 h): not detected
Decomposition efficiency: ratio of each glycoside/aglycon within its isoflavone family ([3]; roasted soy flour, substrate concentration 2%, heat treatment of enzyme yes, reaction time 6 h): 34.4%
Decomposition efficiency: ratio of each glycoside/aglycon within its isoflavone family ([3]; roasted soy flour, substrate concentration 5%, heat treatment of enzyme no, reaction time 0 h): 33.8%
Decomposition efficiency: ratio of each glycoside/aglycon within its isoflavone family ([3]; roasted soy flour, substrate concentration 5%, heat treatment of enzyme no, reaction time 1 h): 11.8%
Decomposition efficiency: ratio of each glycoside/aglycon within its isoflavone family ([3]; roasted soy flour, substrate concentration 5%, heat treatment of enzyme no, reaction time 3 h): 7.2%
Decomposition efficiency: ratio of each glycoside/aglycon within its isoflavone family ([3]; roasted soy flour, substrate concentration 5%, heat treatment of enzyme no, reaction time 6 h): not detected
Decomposition efficiency: ratio of each glycoside/aglycon within its isoflavone family ([3]; roasted soy flour, substrate concentration 5%, heat treatment of enzyme yes, reaction time 6 h): 33.8%
Decomposition efficiency: ratio of each glycoside/aglycon within its isoflavone family ([3]; roasted soy flour, substrate concentration 10%, heat treatment of enzyme no, reaction time 0 h): 24.2%
Decomposition efficiency: ratio of each glycoside/aglycon within its isoflavone family ([3]; roasted soy flour, substrate concentration 10%, heat treatment of enzyme no, reaction time 1 h): 16.7%
Decomposition efficiency: ratio of each glycoside/aglycon within its isoflavone family ([3]; roasted soy flour, substrate concentration 10%, heat treatment of enzyme no, reaction time 3 h): 9.7%
Decomposition efficiency: ratio of each glycoside/aglycon within its isoflavone family ([3]; roasted soy flour, substrate concentration 10%, heat treatment of enzyme no, reaction time 6 h): not detected
Decomposition efficiency: ratio of each glycoside/aglycon within its isoflavone family ([3]; roasted soy flour, substrate concentration 10%, heat treatment of enzyme yes, reaction time 6 h): 35.1%
Decomposition efficiency: ratio of each glycoside/aglycon within its isoflavone family ([3]; roasted soy flour, substrate concentration 20%, heat treatment of enzyme no, reaction time 0 h): 31.8%
Decomposition efficiency: ratio of each glycoside/aglycon within its isoflavone family ([3]; roasted soy flour, substrate concentration 20%, heat treatment of enzyme no, reaction time 1 h): 22.9%
Decomposition efficiency: ratio of each glycoside/aglycon within its isoflavone family ([3]; roasted soy flour, substrate concentration 20%, heat treatment of enzyme no, reaction time 3 h): 13.8%
Decomposition efficiency: ratio of each glycoside/aglycon within its isoflavone family ([3]; roasted soy flour, substrate concentration 20%, heat treatment of enzyme no, reaction time 6 h): 10.0%
Decomposition efficiency: ratio of each glycoside/aglycon within its isoflavone family ([3]; roasted soy flour, substrate concentration 20%, heat treatment of enzyme yes, reaction time 6 h): 35.0%
Decomposition efficiency: ratio of each glycoside/aglycon within its isoflavone family ([3]; roasted soy flour, substrate concentration 30%, heat treatment of enzyme no, reaction time 0 h): 35.3%
Decomposition efficiency: ratio of each glycoside/aglycon within its isoflavone family ([3]; roasted soy flour, substrate concentration 30%, heat treatment of enzyme no, reaction time 1 h): 28.4%
Decomposition efficiency: ratio of each glycoside/aglycon within its isoflavone family ([3]; roasted soy flour, substrate concentration 30%, heat treatment of enzyme no, reaction time 3 h): 24.4%
Decomposition efficiency: ratio of each glycoside/aglycon within its isoflavone family ([3]; roasted soy flour, substrate concentration 30%, heat treatment of enzyme no, reaction time 6 h): 13.7%
Decomposition efficiency: ratio of each glycoside/aglycon within its isoflavone family ([3]; roasted soy flour, substrate concentration 30%, heat treatment of enzyme yes, reaction time 6 h): 34.4%
